The results in this text go back to US20010044445A1, “AZOLE INHIBITORS OF CYTOKINE PRODUCTION” (priority 1999, published 2001).

In series [1] the test system is Human peripheral blood mononuclear cells. As to the kind of experiment: Human Concanavalin-A Proliferation Assay (Con HU Assay). In kind it is cell-based. The note with it: Homo sapiens, PBMC, concanavalin-A stimulated human PBMC; for inhibition at 100 µM / inhibition at 1 µM / inhibition at 10 µM: 72 h, 3 days, read-out: % Inhibition of proliferation (at concentrations of 1,10, or 100 μm); for inhibition at 100 µM: concentration 100 μm (in parentheses in the cell); for IC50: tritiated thymidine; for inhibition at 1 µM: concentration 1 μm (in parentheses in the cell); for inhibition at 10 µM: concentration 10 μm (in parentheses in the cell). The method, boiled down:
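Proliferation read as tritiated thymidine uptake (0.5 μCi/well, 6 h pulse on day 3) in human PBMC cultured 3 days with 2.5 μg/ml (final) concanavalin-A. Cells, 50,000 per well in supplemented RPMI 1640 with 10% FBS, received compound 15 min before mitogen.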

The structures appear in SMILES notation.

As a reminder, the IC50 is the concentration that inhibits the measured activity by half. Read a low IC50 as greater potency. As usually defined, the melting point is the temperature, or range, at which the solid turns liquid.

Compound `O=C(Nc1ccc(-n2nc(C(F)(F)F)cc2C(F)(F)F)cc1)C1CCCCCC1` [Example 18, N-[4[3,5-bis(trifluoromethyl)-1H-pyrazol-1-yl]phenyl]cycloheptanecarboxamide] gave a melting point of 174 to 175 °C. Besides, in series [1], the inhibition at 100 µM was 100% and the IC50 came out at 374 nM.
In the case of `O=C1CCC(C(=O)Nc2ccc(-n3nc(C(F)(F)F)cc3C(F)(F)F)cc2)O1` (stereo not drawn) [Example 254, N-[4-[3,5-bis(trifluoromethyl)-1H-pyrazol-1-yl]phenyl]tetrahydro-5-oxo-2-furancarboxamide], the melting point lay in the range of 172 to 173 °C. Besides, in series [1], the inhibition at 1 µM came to 9%.
In the case of `Cc1cc(Br)cc(C)c1NC(=O)Nc1ccc(-n2nc(C(F)(F)F)cc2C(F)(F)F)cc1` [Example 45, N-[4-[3,5-bis(trifluoromethyl)-1H-pyrazol-1-yl]phenyl]-N′-(4-bromo-2,6-dimethylphenyl)urea], the melting point is over 230 °C. The inhibition at 1 µM in series [1] turned out to be 18%.
`O=C(Nc1ccc(-n2nc(C(F)(F)F)cc2C(F)(F)F)cc1)c1ccc(F)cc1F` [Example 135, N-[4-[3,5-bis(trifluoromethyl)-1H-pyrazol-1-yl]phenyl]-2,4-difluorobenzamide] came in with a melting point of 126 to 128 °C. For the same compound, in series [1], the inhibition at 100 µM is 100% and the IC50 was found to be 207 nM.
Take `O=C(Nc1ccc(-n2nc(C(F)(F)F)cc2OC(F)F)cc1)c1cccnc1F` [Example 324, N-(4-(5-(difluoromethoxy)-3-(trifluoromethyl)-1H-pyrazol-1-yl)phenyl)-2-fluoronicotinamide]: the melting point was 149 to 150 °C. Further, the IC50 in series [1] stood at 89 nM.
`O=C(Nc1ccc(-n2nc(C(F)(F)F)cc2C(F)(F)F)cc1)c1ccc(C(F)(F)F)cc1` [Example 89, N-[4-[3,5-bis(trifluoromethyl)-1H-pyrazol-1-yl]phenyl]-4-(trifluoromethyl)benzamide]: the melting point was in the range of 170 to 172 °C. Further, in series [1], the inhibition at 100 µM was 99% and the midpoint of inhibition, the IC50, lay at 1230 nM.
For the compound `O=C(Nc1ccc(-n2nc(C(F)(F)F)cc2C(F)(F)F)cc1)c1ccsc1` [Example 239, N-[4-[3,5-bis(trifluoromethyl)-1H-pyrazol-1-yl]phenyl]-3-thiophenecarboxamide], the melting point lay in the range of 239 to 240 °C. Moreover, the inhibition at 10 µM in series [1] was determined as 55%.
In turn, `O=C(Nc1ccc(-n2nc(C(F)(F)F)cc2C(F)(F)F)cc1)c1cc(F)c(F)cc1Cl` [Example 223, N-[4-[3,5-bis(trifluoromethyl)-1H-pyrazol-1-yl]phenyl]-2-chloro-4,5-difluorobenzamide] displayed a melting point of 149 to 152 °C. In series [1], the inhibition at 10 µM stood at 100% and the IC50 was 93 nM.
`COc1ccc(C(=O)Nc2ccc(-n3nc(C(F)(F)F)cc3C(F)(F)F)cc2)c(Cl)c1` [Example 215, N-[4-[3,5-bis(trifluoromethyl)-1H-pyrazol-1-yl]phenyl]-2-chloro-4-methoxybenzamide] had a melting point of 140 to 143 °C. In addition, in series [1], the inhibition at 10 µM was determined as 100% and 126 nM corresponded to half-maximal inhibition (IC50).
In the same order, the values of `O=C(Nc1ccc(-n2nc(C(F)(F)F)cc2C(F)(F)F)cc1)c1ccccc1I` [Example 110, N-[4-[3,5-bis(trifluoromethyl)-1H-pyrazol-1-yl]phenyl]-2-iodobenzamide] are 180 to 182 °C, 99% and 314 nM.
As for `O=C(Nc1ccc(-n2nc(C(F)(F)F)cc2C(F)(F)F)cc1)c1ccc(F)c(F)c1` [Example 218, N-[4-[3,5-bis(trifluoromethyl)-1H-pyrazol-1-yl]phenyl]-3,4-difluorobenzamide], the melting point was in the range of 183 to 185 °C. In addition, in series [1], the inhibition at 10 µM was 100% and the midpoint of inhibition, the IC50, lay at 136 nM.
`O=C(Nc1ccc(-n2nc(C(F)(F)F)cc2C(F)(F)F)cc1)c1ccccc1` [Example 92, N-[4-[3,5-bis(trifluoromethyl)-1H-pyrazol-1-yl]phenyl]benzamide] had a melting point of 177 to 178 °C. In series [1], the inhibition at 100 µM was determined as 92% and the IC50 was 673 nM.
For `O=C(Nc1ccc(-n2nc(C(F)(F)F)cc2OC(F)F)cc1)c1ccccc1Cl` [Example 353, 2-chloro-N-(4-(5-(difluoromethoxy)-3-(trifluoromethyl)-1H-pyrazol-1-yl)phenyl)benzamide], the melting point lay within 122 to 123 °C. This compound yielded an IC50 in series [1] of 174 nM.
As for `CS(=O)(=O)c1csc(C(=O)Nc2ccc(-n3nc(C(F)(F)F)cc3C(F)(F)F)cc2)c1Cl` [Example 165, N-[4-[3,5-bis(trifluoromethyl)-1H-pyrazol-1-yl]phenyl]-3-chloro-4-(methylsulfonyl)-2-thiophenecarboxamide], the melting point lay within 210 to 212 °C. For the same compound, in series [1], the inhibition at 10 µM worked out at 57% and the IC50 came to 6700 nM.
As to `O=C(Nc1ccc(-n2nc(C(F)(F)F)cc2C(F)(F)F)cc1)c1ccnc(Cl)c1` [Example 245, N-[4-[3,5-bis(trifluoromethyl)-1H-pyrazol-1-yl]phenyl]-2-chloro-4-pyridinecarboxamide], the melting point lay within 183 to 184 °C. Further, in series [1], the inhibition at 100 µM stood at 100% and the IC50 came out at 279 nM.
Consider `Cc1nnsc1C(=O)Nc1ccc(-n2nc(C(F)(F)F)cc2C(F)(F)F)c(C(F)(F)F)c1` [Example 276, N-[4-[3,5-bis(trifluoromethyl)-1H-pyrazol-1-yl]-3-(trifluoromethyl)phenyl]-4-methyl-1,2,3-thiadiazole-5-carboxamide], for which the melting point was 134 to 136 °C. In addition, the inhibition at 1 µM in series [1] was determined as 16%.
Consider `CC(C)(C)OC(=O)N1CCCC1C(=O)Nc1ccc(-n2nc(C(F)(F)F)cc2C(F)(F)F)cc1` (stereo not drawn) [Example 246, 1,1-Dimethylethyl 2-[[[4-[3,5-bis(trifluoromethyl)-1H-pyrazol-1-yl]phenyl]amino]carbonyl]-1-pyrrolidinecarboxylate], for which the melting point was in the range of 70 to 72 °C. In series [1], the inhibition at 1 µM came to 47%.
As for `FC(F)(F)c1cc(C(F)(F)F)n(-c2ccc(/C=C/c3ccccc3Cl)cc2)n1` [Example 154, (E)-1-[4-[2-(2-chlorophenyl)ethenyl]phenyl]-3,5-bis(trifluoromethyl)-1H-pyrazole], the melting point is 81 to 82 °C. In series [1], the inhibition at 10 µM amounted to 52% and the IC50 turned out to be 3820 nM.
For the compound `O=C(Nc1ccc(-n2nc(C(F)(F)F)cc2C(F)(F)F)cc1-n1nc(C(F)(F)F)cc1C(F)(F)F)c1ccc(F)cc1F` [Example 273, N-[2,4-bis[3,5-bis(trifluoromethyl)-1H-pyrazol-1-yl]phenyl]-2,4-difluorobenzamide], the melting point lay in the range of 114 to 115 °C. The inhibition at 1 µM in series [1] is 12%.
As to `O=C(Nc1ccc(-n2nc(C(F)(F)F)cc2C(F)(F)F)cc1)c1cc2cc(F)ccc2[nH]1` [Example 20, N-[4-[3,5-bis(trifluoromethyl)-1H-pyrazol-1-yl]phenyl]-5-fluoro-1H-indole-2-carboxamide], the melting point fell in the range of 253 to 255 °C. Besides, the inhibition at 1 µM in series [1] was 10%.
`Cc1nc(C)c(C(=O)Nc2ccc(-n3nc(C(F)(F)F)cc3C(F)(F)F)cc2)s1` [Example 105, N-[4-[3,5-bis(trifluoromethyl)-1H-pyrazol-1-yl]phenyl]-2,4-dimethyl-5-thiazolecarboxamide]: the melting point was in the range of 158 to 159 °C. Further, in series [1], the inhibition at 10 µM came out at 100% and the IC50 came to 387 nM.
As for `NC(=O)c1cccc(C(=O)Nc2ccc(-n3nc(C(F)(F)F)cc3C(F)(F)F)cc2)c1` [Example 138, N-[4-[3,5-bis(trifluoromethyl)-1H-pyrazol-1-yl]phenyl]-1,3-benzenedicarboxamide], the melting point was in the range of 244 to 245 °C. In addition, in series [1], the inhibition at 10 µM came to 99% and the IC50 is 364 nM.
Consider `Fc1ccc(CNc2ccc(-n3nc(C(F)(F)F)cc3C(F)(F)F)cc2)cc1` [Example 84, N-[4-[3,5-bis(trifluoromethyl)-1H-pyrazol-1-yl]phenyl]-4-fluorobenzenemethanamine], for which the melting point was 92 to 94 °C. Further, in series [1], the inhibition at 1 µM stood at 76% and 712 nM corresponded to half-maximal inhibition (IC50).
`N#Cc1cccc(NC(=O)Nc2ccc(-n3nc(C(F)(F)F)cc3C(F)(F)F)cc2)c1` [Example 16, N-[4-[3,5-bis(trifluoromethyl)-1H-pyrazol-1-yl]phenyl]-N′-(3-cyanophenyl)urea] registered a melting point of 204 to 205 °C. Also, in series [1], the inhibition at 100 µM is 100% and half-maximal inhibition (IC50) required 4190 nM.
For the compound `COC(=O)c1cccc(C(=O)Nc2ccc(-n3nc(C(F)(F)F)cc3C(F)(F)F)cc2)c1` [Example 129, Methyl 3-[[[4-[3,5-bis(trifluoromethyl)-1H-pyrazol-1-yl]phenyl]amino]carbonyl]benzoate], the melting point was 174 to 175 °C. In series [1], the inhibition at 100 µM turned out to be 100% and the IC50 amounted to 380 nM.
Compound `O=C(Nc1ccc(-n2nc(C(F)(F)F)cc2C(F)(F)F)cc1)C1CC1c1ccccc1` (stereo not drawn) [Example 68, N-[4-[3,5-bis(trifluoromethyl)-1H-pyrazol-1-yl]phenyl]-2-phenylcyclopropanecarboxamide] registered a melting point of 176 to 178 °C. In series [1], the inhibition at 100 µM was 99% and the IC50 was 2440 nM.
